# Measured values published in paper PMC10284601, “Evolution of an extreme hemoglobin phenotype contributed to the sub-Arctic specialization of extinct Steller’s sea cows” (eLife, 2023).
# Experiments:
# Test in all cases: shift of O2 affinity (P50), thin-film O2 equilibrium curves
# Conditions in all cases: allosteric effector of O2 binding; 0.5 mM DPG (twofold molar excess over tetramer) vs stripped Hb; no Cl-; 0.1 M HEPES, pH 7.2, 37 °C
# [1] = target: T1, Steller's sea cow Hb (H. gigas HbA; α2β/δ2) (Hydrodamalis gigas, UniProt A0A481WR13, N83K)
# T1 construct: gene HBB; recombinant tetramer, E. coli JM109 (DE3) with co-expressed methionine aminopeptidase, codon-optimised, ion exchange purified; natural β/δ82Asn; with Hemoglobin subunit alpha
# dugong Hb (HbA; α2β/δ2) = target: T2, dugong Hb (HbA; α2β/δ2) (Dugong dugon, UniProt A0A481WQB0)
# T2 construct: gene HBB; recombinant tetramer, E. coli JM109 (DE3) with co-expressed methionine aminopeptidase, codon-optimised, ion exchange purified; with Hemoglobin subunit alpha
# [2] = target: T3, Steller's sea cow Hb (H. gigas HbA; α2β/δ2) (Hydrodamalis gigas, UniProt A0A481WR13)
# T3 construct: gene HBB; recombinant tetramer, E. coli JM109 (DE3) with co-expressed methionine aminopeptidase, codon-optimised, ion exchange purified; natural β/δ82Asn; with Hemoglobin subunit alpha
# T3 sequence (A0A481WR13 entry or part of it): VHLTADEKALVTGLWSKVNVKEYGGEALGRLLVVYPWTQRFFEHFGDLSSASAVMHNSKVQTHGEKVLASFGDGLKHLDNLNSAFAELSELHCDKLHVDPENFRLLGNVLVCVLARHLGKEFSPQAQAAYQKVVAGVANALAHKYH
# T3 sequence (A0A481WNT7 entry or part of it, further chain): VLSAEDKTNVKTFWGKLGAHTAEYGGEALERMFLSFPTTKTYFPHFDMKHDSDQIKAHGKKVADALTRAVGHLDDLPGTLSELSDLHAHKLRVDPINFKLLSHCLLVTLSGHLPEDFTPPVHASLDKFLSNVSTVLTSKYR
# T2 sequence (A0A481WNF4 entry or part of it): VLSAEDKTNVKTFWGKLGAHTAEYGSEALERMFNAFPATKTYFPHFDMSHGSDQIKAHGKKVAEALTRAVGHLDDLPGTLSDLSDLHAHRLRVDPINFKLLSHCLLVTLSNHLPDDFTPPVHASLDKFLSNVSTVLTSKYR
# T2 sequence (A0A481WQB0 entry or part of it): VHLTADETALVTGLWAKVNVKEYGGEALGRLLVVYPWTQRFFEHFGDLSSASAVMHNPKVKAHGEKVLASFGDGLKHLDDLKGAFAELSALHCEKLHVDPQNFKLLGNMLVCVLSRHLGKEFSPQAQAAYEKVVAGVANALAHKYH
# T1 sequence (A0A481WNT7 entry or part of it, stated change not applied): as the sequence (A0A481WNT7 entry or part of it, further chain) above
# T1 sequence (A0A481WR13 entry or part of it N83K): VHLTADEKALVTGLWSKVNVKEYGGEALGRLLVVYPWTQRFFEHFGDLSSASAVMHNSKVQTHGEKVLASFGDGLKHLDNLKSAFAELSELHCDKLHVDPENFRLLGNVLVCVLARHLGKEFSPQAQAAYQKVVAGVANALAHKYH
smiles,measurement,setting,value
"O=C(O)[C@@H](COP(=O)(O)O)OP(=O)(O)O [2,3-diphosphoglycerate]",ΔlogP50(DPG-stripped),[1],reversion to the ancestral state restores the DPG effect to the same level
same,ΔlogP50(DPG-stripped),dugong Hb (HbA; α2β/δ2),0.30 log units (P50 in mm Hg)
same,ΔlogP50(DPG-stripped),[2],0.02 log units (P50 in mm Hg)
